From patent publication US11254668B2, “Pyrazolo[1,5-A]pyrazin-4-yl and related derivatives” (Pfizer Inc., priority 2017, dated 2022)
Like-named read-outs stand apart in the source and are kept apart here.

How the values were obtained:
Format in all cases: biochemical
TYK2 = TYK2 (Homo sapiens (Human), UniProt P29597); test: JAK Caliper Enzyme Assay at 1 mM ATP, TYK2
Description: (§1) Compounds of the invention were evaluated by in vitro methods to determine their respective ability to inhibit the JAK kinases (TYK2, JAK1, JAK2, JAK3).
(§2) The human JAK inhibitory activity was determined by using a microfluidic assay to monitor phosphorylation of a synthetic peptide by the recombinant human kinase domain of each of the four members of the JAK family, JAK1, JAK2, JAK3 and TYK2. […] Each assay condition was optimized for enzyme concentration and room temperature incubation time to obtain a conversion rate of 20% to 30% phosphorylated peptide product. Reactions were terminated by the addition of stop buffer containing EDTA. Utilizing the LabChip 3000 mobility shift technology (Caliper Life Science), each assay reaction was sampled to determine the level of phosphorylation. This technology is separation-based, allowing direct detection of fluorescently labeled substrates and products. Separations are controlled by a combination of vacuum pressure and electric field strength optimized for each peptide substrate.
(§3) JAK Caliper Enzyme Assay at 1mM ATP
(§4) Compounds were added to a 384-well plate.
(§5) The data was collected using the HTS Well Analyzer software from Caliper Life Sciences. The data output for data analysis is the percent product converted calculated on peak height (Equation 1). % product converted=100*((product)/(product+substrate)) Equation 1: […]
(§6) The percent effect at each compound concentration was calculated based on the positive and negative control well contained within each assay plate (Equation 2). […] The negative control wells contained DMSO alone (at the same concentration as the compound wells) that was used to set the baseline activity in the assay (i.e., uninhibited JAK1, JAK2, JAK3 or TYK2). % effect=100*([…](positive control-negative control)) Equation 2: […]
(§7) The percent effect was plotted against the compound concentration compound.

JAK1 = JAK1 (Homo sapiens (Human), UniProt P23458); test: JAK Caliper Enzyme Assay at 1 mM ATP, JAK1
Chain of JAK1 (P23458 875-1153): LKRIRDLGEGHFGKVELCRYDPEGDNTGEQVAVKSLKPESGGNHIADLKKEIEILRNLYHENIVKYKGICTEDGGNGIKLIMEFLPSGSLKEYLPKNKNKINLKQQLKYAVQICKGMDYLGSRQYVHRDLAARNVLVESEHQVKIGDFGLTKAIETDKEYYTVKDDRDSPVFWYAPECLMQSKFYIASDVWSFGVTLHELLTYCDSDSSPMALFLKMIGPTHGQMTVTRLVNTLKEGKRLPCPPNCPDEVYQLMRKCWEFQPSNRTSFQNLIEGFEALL
Description: as §1, §2, §3, §4, §5, §6, §7

JAK2 = JAK2 (Homo sapiens (Human), UniProt O60674); test: JAK Caliper Enzyme Assay at 1 mM ATP, JAK2
Chain of JAK2 (O60674 849-1124): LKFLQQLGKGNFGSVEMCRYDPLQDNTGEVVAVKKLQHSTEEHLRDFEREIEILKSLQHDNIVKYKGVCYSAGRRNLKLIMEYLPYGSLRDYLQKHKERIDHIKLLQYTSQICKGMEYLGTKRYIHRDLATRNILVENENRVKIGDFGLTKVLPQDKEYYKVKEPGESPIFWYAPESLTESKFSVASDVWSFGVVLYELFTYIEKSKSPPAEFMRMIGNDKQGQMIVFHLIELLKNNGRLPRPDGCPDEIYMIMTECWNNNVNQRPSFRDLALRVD
Description: as §1, §2, §3, §4, §5, §6, §7

JAK3 = JAK3 (Homo sapiens (Human), UniProt P52333); test: JAK Caliper Enzyme Assay at 1 mM ATP, JAK3
Chain of JAK3 (P52333 822-1111): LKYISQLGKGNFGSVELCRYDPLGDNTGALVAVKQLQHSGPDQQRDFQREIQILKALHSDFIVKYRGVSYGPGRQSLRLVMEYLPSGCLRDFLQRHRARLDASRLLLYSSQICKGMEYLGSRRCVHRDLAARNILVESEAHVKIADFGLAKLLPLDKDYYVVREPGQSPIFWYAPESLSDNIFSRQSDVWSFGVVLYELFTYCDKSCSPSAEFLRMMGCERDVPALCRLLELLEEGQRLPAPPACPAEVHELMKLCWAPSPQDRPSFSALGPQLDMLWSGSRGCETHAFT
Description: as §1, §2, §3, §4, §5, §6, §7

Chain of TYK2 (P29597 897-1176): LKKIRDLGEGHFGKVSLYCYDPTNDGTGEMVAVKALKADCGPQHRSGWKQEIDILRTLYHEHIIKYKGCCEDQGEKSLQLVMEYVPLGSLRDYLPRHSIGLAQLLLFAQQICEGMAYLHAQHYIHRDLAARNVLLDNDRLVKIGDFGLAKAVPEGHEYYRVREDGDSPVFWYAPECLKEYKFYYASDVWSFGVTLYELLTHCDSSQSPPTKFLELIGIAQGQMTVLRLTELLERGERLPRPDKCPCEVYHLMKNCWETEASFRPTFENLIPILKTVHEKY

IC50 (TYK2; JAK Caliper enzyme assay) [nM]	IC50 (JAK1; JAK Caliper enzyme assay) [nM]	IC50 (JAK2; JAK Caliper enzyme assay) [nM]	IC50 (JAK3; JAK Caliper enzyme assay) [nM]	IC50 (TYK2) [nM]	IC50 (JAK1) [nM]	IC50 (JAK2) [nM]	IC50 (JAK3) [nM]	SMILES
99	2520	748	> 10000	–	–	–	–	N#CCC1(n2ncc(-c3cc(-c4ccc(C(N)=O)cc4)cc4ncccc34)n2)CC(C#N)C1 (stereo not drawn) [Example 434, 4-(5-{2-[trans-3-cyano-1-(cyanomethyl)cyclobutyl]-2H-1,2,3-triazol-4-yl}quinolin-7-yl)benzamide]
–	–	–	–	46	679	444	> 10000	CS(=O)(=O)N1CC(CC#N)(n2ccc(-c3nc(-c4cn[nH]c4)cc4ncccc34)n2)C1 [Example 75, [1-(methylsulfonyl)-3-{3-[7-(1H-pyrazol-4-yl)-1,6-naphthyridin-5-yl]-1H-pyrazol-1-yl}azetidin-3-yl]acetonitrile]
–	–	–	–	46	404	41	1170	CN(C)CCn1cc(-c2cc3ncccc3c(-c3ccn([C@]4(CC#N)C[C@H](C#N)C4)n3)n2)cn1 [Example 114, cis-3-(cyanomethyl)-3-[3-(7-{1-[2-(dimethylamino)ethyl]-1H-pyrazol-4-yl}-1,6-naphthyridin-5-yl)-1H-pyrazol-1-yl]cyclobutanecarbonitrile]
–	–	–	–	8	73	33	5250	N#CC[C@]1(n2ccc(-c3nc(-c4c[nH]nc4N)cc4ncccc34)n2)C[C@H](C#N)C1 [Example 98, trans-3-{3-[7-(3-amino-1H-pyrazol-4-yl)-1,6-naphthyridin-5-yl]-1H-pyrazol-1-yl}-3-(cyanomethyl)cyclobutanecarbonitrile]
1780	> 10000	6880	> 10000	–	–	–	–	Cc1cc(-c2cc(-c3cnn(C4(CC#N)CN(S(C)(=O)=O)C4)n3)c3cccnc3c2)cnc1N [Example 388, [3-{4-[7-(6-amino-5-methylpyridin-3-yl)quinolin-5-yl]-2H-1,2,3-triazol-2-yl}-1-(methylsulfonyl)azetidin-3-yl]acetonitrile]
–	–	–	–	27	458	139	9060	CCn1cc(-c2cc3ncccc3c(-c3ccn(C4(CC#N)CN(CC(F)(F)F)C4)n3)n2)cn1 [Example 111, [3-{3-[7-(1-ethyl-1H-pyrazol-4-yl)-1,6-naphthyridin-5-yl]-1H-pyrazol-1-yl}-1-(2,2,2-trifluoroethyl)azetidin-3-yl]acetonitrile]
709	> 10000	3150	> 10000	–	–	–	–	CS(=O)(=O)N1CC(CC#N)(n2ncc(-c3cc(-c4cccc(CN)c4)cc4ncccc34)n2)C1 [Example 427, [3-(4-{7-[3-(aminomethyl)phenyl]quinolin-5-yl}-2H-1,2,3-triazol-2-yl)-1-(methylsulfonyl)azetidin-3-yl]acetonitrile]
–	–	–	–	57	2830	838	> 10000	N#CC[C@]1(n2ncc(-c3cc(-c4c[nH]nc4CO)cc4ncccc34)n2)C[C@H](C#N)C1 [Example 317, trans-3-(cyanomethyl)-3-(4-{7-[3-(hydroxymethyl)-1H-pyrazol-4-yl]quinolin-5-yl}-2H-1,2,3-triazol-2-yl)cyclobutanecarbonitrile]
–	–	–	–	118	> 10000	> 10000	> 10000	CS(=O)(=O)N1CC(CC#N)(n2ccc(-c3nc(-c4cc(O)cc(F)c4)cc4ncccc34)n2)C1 [Example 261, [3-{3-[7-(3-fluoro-5-hydroxyphenyl)-1,6-naphthyridin-5-yl]-1H-pyrazol-1-yl}-1-(methylsulfonyl)azetidin-3-yl]acetonitrile]
–	–	–	–	16	1250	530	> 10000	N#CC[C@]1(n2ncc(-c3cc(-c4cn[nH]c4N)cc4ncccc34)n2)C[C@H](C#N)C1 [Example 319, trans-3-{4-[7-(5-amino-1H-pyrazol-4-yl)quinolin-5-yl]-2H-1,2,3-triazol-2-yl}-3-(cyanomethyl)cyclobutanecarbonitrile]
–	–	–	–	47	1060	927	> 10000	CO[C@H]1C[C@@](CC#N)(n2ccc(-c3nc(-c4cn[nH]c4)cc4ncccc34)n2)C1 [Example 80, (cis-3-methoxy-1-{3-[7-(1H-pyrazol-4-yl)-1,6-naphthyridin-5-yl]-1H-pyrazol-1-yl}cyclobutyl)acetonitrile]
7540	> 10000	> 10000	> 10000	–	–	–	–	CS(=O)(=O)N1CC(CC#N)(n2ncc(-c3cc(-c4cc(F)ccc4O)cc4ncccc34)n2)C1 [Example 442]
–	–	–	–	7	66	18	2880	Cc1cc(-c2cc3ncccc3c(-c3ccn([C@]4(CC#N)C[C@H](C#N)C4)n3)n2)n[nH]1 [Example 44, cis-3-(cyanomethyl)-3-{3-[7-(5-methyl-1H-pyrazol-3-yl)-1,6-naphthyridin-5-yl]-1H-pyrazol-1-yl}cyclobutanecarbonitrile]
2530	> 10000	6290	> 10000	–	–	–	–	Cc1cncc(-c2cc(-c3cnn([C@]4(CC#N)C[C@H](C#N)C4)n3)c3cccnc3c2)n1 [Example 402, cis-3-(cyanomethyl)-3-{4-[7-(6-methylpyrazin-2-yl)quinolin-5-yl]-2H-1,2,3-triazol-2-yl}cyclobutanecarbonitrile]
–	–	–	–	45	843	436	> 10000	CS(=O)(=O)N1CC(CC#N)(n2ccc(-c3nc(-c4ccc(N)nc4)cc4ncccc34)n2)C1 [Example 194]
–	–	–	–	31	308	177	> 10000	C[C@]1(C#N)C[C@@](CC#N)(n2ccc(-c3nc(-c4ccnc(N)c4)cc4ncccc34)n2)C1 [Example 201, cis-3-{3-[7-(2-aminopyridin-4-yl)-1,6-naphthyridin-5-yl]-1H-pyrazol-1-yl}-3-(cyanomethyl)-1-methylcyclobutanecarbonitrile]
–	–	–	–	19	> 10000	566	> 10000	CS(=O)(=O)N1CC(CC#N)(n2ccc(-c3nc(-c4ccc(F)cc4O)cc4ncccc34)n2)C1 [Example 259, [3-{3-[7-(4-fluoro-2-hydroxyphenyl)-1,6-naphthyridin-5-yl]-1H-pyrazol-1-yl}-1-(methylsulfonyl)azetidin-3-yl]acetonitrile]
–	–	–	–	167	3670	1690	> 10000	N#CC[C@]1(n2ccc(-c3nc(-c4cc[nH]n4)cc4ncccc34)n2)C[C@@H](C(N)=O)C1 [Example 24, cis-3-(cyanomethyl)-3-{3-[7-(1H-pyrazol-3-yl)-1,6-naphthyridin-5-yl]-1H-pyrazol-1-yl}cyclobutanecarboxamide]
–	–	–	–	39	521	123	> 10000	Cn1nc(CO)cc1-c1cc2ncccc2c(-c2ccn([C@]3(CC#N)C[C@H](C#N)C3)n2)n1 [Example 61, cis-3-(cyanomethyl)-3-(3-{7-[3-(hydroxymethyl)-1-methyl-1H-pyrazol-5-yl]-1,6-naphthyridin-5-yl}-1H-pyrazol-1-yl)cyclobutanecarbonitrile]
–	–	–	–	77	520	107	> 10000	CO[C@H]1C[C@](CC#N)(n2cc(-c3nc(-c4cnn(CCO)c4)cc4ncccc34)cn2)C1 [Example 9, [trans-1-(4-{7-[1-(2-hydroxyethyl)-1H-pyrazol-4-yl]-1,6-naphthyridin-5-yl}-1H-pyrazol-1-yl)-3-methoxycyclobutyl]acetonitrile]
7400	> 10000	> 10000	> 10000	–	–	–	–	Cc1ncc(N)nc1-c1cc(-c2cnn([C@]3(CC#N)C[C@H](C#N)C3)n2)c2cccnc2c1 [Example 404, cis-3-{4-[7-(6-amino-3-methylpyrazin-2-yl)quinolin-5-yl]-2H-1,2,3-triazol-2-yl}-3-(cyanomethyl)cyclobutanecarbonitrile]
–	–	–	–	488	6410	1750	> 10000	Cc1cc(-c2cc3ncccc3c(-c3ccn(C4(CC#N)CN(S(C)(=O)=O)C4)n3)n2)cnc1N [Example 219, [3-{3-[7-(6-amino-5-methylpyridin-3-yl)-1,6-naphthyridin-5-yl]-1H-pyrazol-1-yl}-1-(methylsulfonyl)azetidin-3-yl]acetonitrile]
105	739	200	> 10000	–	–	–	–	N#CC[C@]1(n2ncc(-c3cc(-c4cnn5cccnc45)cc4ncccc34)n2)C[C@@H](C#N)C1 [Example 419, cis-3-(cyanomethyl)-3-{4-[7-(pyrazolo[1,5-a]pyrimidin-3-yl)quinolin-5-yl]-2H-1,2,3-triazol-2-yl}cyclobutanecarbonitrile]
